According to patent US12703693B2, “Crystalline forms of N-{3-[(1S)-1-{[6-(3,4-dimethoxyphenyl)pyrazin-2-yl]amino}ethyl]phenyl}-5-methylpyridine-3-carboxamide and related products and methods” (GB002, INC., priority 2021, dated 2026):
Where “and” joins values, the source holds several entries; their conditions need not be identical. Identical values can stand only once. One block for each molecule: values may come before it.

Experiments:
Type in all cases: physicochemical
[1] = Particle size distribution (PSD) of micronized / spray dried material; conditions: for Dv10 (μm) 1 / Dv50 (μm) 1 / Dv90 (μm) 1 / SPAN1 / Dv10 (μm) 2 / Dv50 (μm) 2 / Dv90 (μm) 2 / SPAN 2: wet polished (wet milled + spray dried) Compound 1 Form A; for Dv10 (μm) 1 / Dv50 (μm) 1 / Dv90 (μm) 1 / SPAN1: PSD set 1; for Dv10 (μm) 2 / Dv50 (μm) 2 / Dv90 (μm) 2 / SPAN 2: PSD set 2
Source text: Crystalline Compound 1 Form A was fed into a grinding chamber tangentially by vacuum created by the venturi system using pressurized nitrogen (venturi pressure, Pvent, above grind pressure, Pgrind). Compressed nitrogen was also used for the jet nozzles in the walls of the chamber. The feed flow rate was set and controlled automatically (by a gravimetric feeder) or manually. Once inside the milling chamber particles were accelerated by a series of perimeter jets, in a spiral movement. The compressed fluid issuing from the nozzles expands from Pgrind and imparts very high rotational speeds in the chamber. The micronizing effect occurs when the slower incoming particles and the faster particles in the spiral path collide. While centrifugal force retains the larger particles at the periphery of the milling chamber, the smaller particles exit with the exhaust gas from the center of the chamber. Five 20 g trials were performed in a 1.5″ jet mill, under varying feed rates (Ffeed,JM,) and pressures; the optimal conditions were used for a sixth larger scale 50 g trial.
Aqueous suspensions of crystalline Compound 1 Form A in water (5% w/w or 10% w/w) were processed via microfluidization with a HPH18 (M-110EH-30 Microfluidics Pilot) wet milling apparatus equipped with an auxiliary processing module (200 μm) and an interaction chamber (Z-shape, 100 μm). The unit was initiated at a given pressure for the first five cycles to perform a pre-milling of the suspension, using only the auxiliary processing module (200 μm). The interaction chamber (100 μm) was then introduced and the suspension processed at a defined pressure. The temperature was controlled, using a reactor jacket, and recorded. To address clogging of the micronization chambers (observed after ~25 cycles), the pressure was increased from 25 to 60 bar.
The material isolated from the first run 1A, was dived into three (1BI, 1BII and 1BIII); runs 2A and 3A were spray dried to produce samples 2B and 3B, respectively. […] Runs 2B and 3B were additionally characterized for specific surface area (SSA). See Table 27 (runs 1BI, 1BII and 1BIII) and Table 28 (runs 2B and 3B) for conditions and product characterization. […]
Two 250 g batches of crystalline Compound 1 Form A were each suspended in water (5 L) and wet polished in a wet milling HPH18 (M-110EH-30 Microfluidics Pilot) apparatus, equipped with an auxiliary processing module (200 μm) and an interaction chamber (Z-shape, 100 μm). The unit was initiated at 50 bar for the first five cycles to perform a pre-milling of the suspension, using only the auxiliary processing module (200 μm). The interaction chamber (100 μm) was then introduced and the suspension processed at 50 bar (increased to 60 or 70 bar if the system clogged). The temperature was maintained at 18-28° C. using a reactor jacket. The Reactor agitation speed was 280 RPM (batch 1) and 390 RPM (batch 2). The first batch was micronized for 25 cycles and particle size distribution analyzed after 5, 15 and 20 cycles; the second batch was micronized for […] and particle size distribution analyzed after 15, 20, 25 and 35 cycles.
Both batches were then spray dried (separately) using a Büchi spray dryer, using an open loop system. The unit was equipped with a two-fluid nozzle: cap and orifice diameters of 1.5 and 0.7 mm, respectively operated with nitrogen. The aspirator, blowing nitrogen, was set at 100% capacity (~40 kg/h). The suspension feed flow was set to 8 ml/min, high and the drying outlet temperature to 75±1° C. […] Total yield (both batches combined) was 267 g (53%).
Two 250 g batches (250 g and 238 g; 488 g total) of crystalline Compound 1 Form A coated with ~2% L-leucine were each suspended in water (5 L) and wet polished in a wet milling HPH18 (M-110EH-30 Microfluidics Pilot) apparatus, under the same process as described in the previous example. The first batch was micronized for 25 cycles and the second for 30 cycles. […]

[2] = Product characterization of micronized / spray dried powder (XRPD, amorphous content, water content by KF, assay and related substances, SSA); conditions: for KF: water content
Source text: The final spray dried product was characterized for assay and related substances, PSD, water content by KF and XRPD and the results shown in Table 43. The two sub-batches were blended to obtain the final product, with a total final yield was 137 g (68%), see Table 44.

[3] = as above
[4] = Compound 1 alone after wet milling, BATCH 01: 20 cycles/P = 50 bar, BATCH 02: 35 cycles/P = 70 bar
[5] = Compound 1 alone, spray dried, individual batch analyses, cyclone 1
[6] = Compound 1 alone, spray dried, individual batch analyses, cyclone 2
[7] = final product, Compound 1 alone, wet polished and spray dried
[8] = jet milled crystalline Compound 1 Form A, label = jet mill run
[9] = wet polished (wet milled + spray dried) Compound 1 Form A

SMILES: COc1ccc(-c2cncc(N[C@@H](C)c3cccc(NC(=O)c4cncc(C)c4)c3)n2)cc1OC [BATCH 02]
- Dv10 [1, 4]: 0.3 μm
- Dv50 [1, 4]: 0.8 μm
- Dv90 [1, 4]: 3.4 μm

SMILES: COc1ccc(-c2cncc(N[C@@H](C)c3cccc(NC(=O)c4cncc(C)c4)c3)n2)cc1OC [Compound 1, N-{3-[(1S)-1-{[6-(3,4-dimethoxyphenyl)pyrazin-2-yl]amino}ethyl]phenyl}-5-methylpyridine-3-carboxamide]
- Dv10 [1, 5]: 0.1 μm and 0.3 μm
- Dv50 [1, 5]: 0.4 μm and 0.5 μm
- Dv90 [1, 5]: 3.1 μm and 1.5 μm
- SPAN [1, 5]: 7.2 and 2.1
- Dv10 [1, 6]: 0.1 μm and 0.3 μm
- Dv50 [1, 6]: 0.4 μm and 0.5 μm
- Dv90 [1, 6]: 2.9 μm and 1.4 μm
- SPAN [1, 6]: 7.9 and 2.0
- Dv10 [1, 7]: 0.3 μm
- Dv50 [1, 7]: 0.6 μm
- Dv90 [1, 7]: 3.3 μm
- SPAN [1, 7]: 4.7
- Dv10 [1, 8]: 0.4 μm
- Dv50 [1, 8]: 1.2 μm
- Dv90 [1, 8]: 2.8 μm
- SPAN [1, 8]: 2.0
- Bulk density [2, 7]: 0.10 g/mL
- KF (water content) [2, 7]: 0.3 % w/w
- XRPD [2, 7]: Form A
- Amorphous content by DSC [3, 7]: <10 % w/w
- Amorphous content by DSC [3, 8]: 46 % w/w
- Assay [3, 8]: 97.70 % LC
- Impurities [3, 8]: 1.10 % area
- Water content KF [3, 8]: 1.4 % w/w
- XRPD [3, 8]: P + A
- Specific Surface Area by BET ([3]; jet milled crystalline Compound 1 Form A, label = jet mill run, in m2/g (unit assumed)): 10.35

SMILES: COc1ccc(-c2cncc(N[C@@H](C)c3cccc(NC(=O)c4cncc(C)c4)c3)n2)cc1OC [Compound 1BII]
- Dv10 (μm) 1 [1]: 1.7 μm
- Dv50 (μm) 1 [1]: 3.3 μm
- Dv90 (μm) 1 [1]: 6.3 μm
- SPAN1 [1]: 1.4
- Dv10 (μm) 2 [1]: 1.3 μm
- Dv50 (μm) 2 [1]: 3 μm
- Dv90 (μm) 2 [1]: 6.1 μm
- SPAN 2 [1]: 1.6
- KF [2, 9]: 0.2 % w/w
- Amorphous content [2, 9]: <10 % w/w
- Assay [2, 9]: 102.0 % LC
- Impurities [2, 9]: 0.9 % area
- XRPD [2, 9]: Crystalline

SMILES: COc1ccc(-c2cncc(N[C@@H](C)c3cccc(NC(=O)c4cncc(C)c4)c3)n2)cc1OC [Compound 3B-2F]
- Dv10 (μm) 2 [1]: 1.3 μm
- Dv50 (μm) 2 [1]: 3.7 μm
- Dv90 (μm) 2 [1]: 14.7 μm
- SPAN 2 [1]: 3.6

Now from value to molecule:

- Dv10 [1, 4]: 0.2 μm
- Dv50 [1, 4]: 0.5 μm
- Dv90 [1, 4]: 1.7 μm
SMILES: COc1ccc(-c2cncc(N[C@@H](C)c3cccc(NC(=O)c4cncc(C)c4)c3)n2)cc1OC [BATCH 01]

- Dv10 (μm) 1 [1]: 1.7 μm
- Dv50 (μm) 1 [1]: 3.4 μm
- Dv90 (μm) 1 [1]: 6.6 μm
- SPAN1 [1]: 1.4
- Dv10 (μm) 2 [1]: 1.4 μm
- Dv50 (μm) 2 [1]: 3.1 μm
- Dv90 (μm) 2 [1]: 6.6 μm
- SPAN 2 [1]: 1.7
- KF [2, 9]: 0.1 % w/w
- Amorphous content [2, 9]: <10 % w/w
- Assay [2, 9]: 99.40 % LC
- Impurities [2, 9]: 1.10 % area
- XRPD [2, 9]: Crystalline
SMILES: COc1ccc(-c2cncc(N[C@@H](C)c3cccc(NC(=O)c4cncc(C)c4)c3)n2)cc1OC [Compound 1BIII]

- Dv10 (μm) 1 [1]: 1.8 μm
- Dv50 (μm) 1 [1]: 3.5 μm
- Dv90 (μm) 1 [1]: 6.6 μm
- SPAN1 [1]: 1.4
- Dv10 (μm) 2 [1]: 1.5 μm
- Dv50 (μm) 2 [1]: 3.3 μm
- Dv90 (μm) 2 [1]: 6.7 μm
- SPAN 2 [1]: 1.6
- KF [2, 9]: 0.5 % w/w
- Amorphous content [2, 9]: <10 % w/w
- Assay [2, 9]: 98.9 % LC
- Impurities [2, 9]: 1.1 % area
- XRPD [2, 9]: Crystalline
SMILES: COc1ccc(-c2cncc(N[C@@H](C)c3cccc(NC(=O)c4cncc(C)c4)c3)n2)cc1OC [Compound 1BI]
